Conditions: Liquid, Vibrating tube method

Cc1ccccc1 [toluene]
mass density [kg/m3]
Conditions	298.15 K	308.15 K	318.15 K	328.15 K
100 kPa	862.1	853	843.8	834.5
2130 kPa	863.6	854.5	845.6	836.5
4150 kPa	865.2	856.2	847.3	838.3
6180 kPa	866.7	857.8	849	840.1
8210 kPa	868.2	859.3	850.6	841.8
10230 kPa	869.6	860.9	852.3	843.5
11250 kPa	870.4	861.7	853.1	844.4
12260 kPa	871.1	862.4	853.9	845.2
14290 kPa	872.5	863.9	855.4	846.9
16310 kPa	873.9	865.4	857	848.6
18340 kPa	875.3	866.8	858.5	850.1
20370 kPa	876.7	868.2	860	851.7
22390 kPa	878	869.6	861.5	853.3
24420 kPa	879.3	871	862.9	854.8
26450 kPa	880.6	872.4	864.4	856.3
28470 kPa	881.9	873.8	865.8	857.8
29490 kPa	882.5	874.4	866.5	858.5
30500 kPa	883.2	875	867.2	859.3
32530 kPa	884.4	876.3	868.5	860.7
34550 kPa	885.6	877.6	869.9	862.1
36580 kPa	886.8	878.9	871.2	863.5
38600 kPa	888	880.1	872.5	864.9
39620 kPa	888.6	880.7	873.2	865.5

CCC(=O)c1ccccc1 [ethyl phenyl ketone]
mass density [kg/m3]
Conditions	298.15 K	308.15 K	318.15 K	328.15 K
100 kPa	1005.3	996.8	988.3	979.6
2130 kPa	1006.4	998	989.6	981.1
4150 kPa	1007.5	999.2	990.9	982.4
6180 kPa	1008.7	1000.4	992.1	983.7
8210 kPa	1009.8	1001.6	993.3	985
10230 kPa	1010.9	1002.8	994.6	986.2
11250 kPa	1011.5	1003.4	995.2	986.9
12260 kPa	1012.1	1003.9	995.8	987.5
14290 kPa	1013.2	1005.1	997	988.7
16310 kPa	1014.3	1006.2	998.1	990
18340 kPa	1015.3	1007.3	999.3	991.2
20370 kPa	1016.4	1008.4	1000.4	992.3
22390 kPa	1017.5	1009.5	1001.6	993.5
24420 kPa	1018.5	1010.6	1002.7	994.7
26450 kPa	1019.5	1011.7	1003.8	995.9
28470 kPa	1020.5	1012.8	1004.9	997.1
29490 kPa	1021	1013.2	1005.5	997.6
30500 kPa	1021.6	1013.8	1006	998.2
32530 kPa	1022.5	1014.8	1007.1	999.3
34550 kPa	1023.5	1015.8	1008.2	1000.4
36580 kPa	1024.5	1016.8	1009.2	1001.5
38600 kPa	1025.5	1017.9	1010.3	1002.6
39620 kPa	1025.9	1018.3	1010.8	1003.2

Source: the NIST ThermoML archive (doi:10.1016/j.jct.2004.10.011)
